The record followed here is BindingDB's records for doi:10.1016/j.bmc.2014.04.036 (Amri, 2014).

In this experiment the target is T1, Sodium/glucose cotransporter 1 (Homo sapiens, UniProt P13866).
T1 sequence (P13866 whole entry): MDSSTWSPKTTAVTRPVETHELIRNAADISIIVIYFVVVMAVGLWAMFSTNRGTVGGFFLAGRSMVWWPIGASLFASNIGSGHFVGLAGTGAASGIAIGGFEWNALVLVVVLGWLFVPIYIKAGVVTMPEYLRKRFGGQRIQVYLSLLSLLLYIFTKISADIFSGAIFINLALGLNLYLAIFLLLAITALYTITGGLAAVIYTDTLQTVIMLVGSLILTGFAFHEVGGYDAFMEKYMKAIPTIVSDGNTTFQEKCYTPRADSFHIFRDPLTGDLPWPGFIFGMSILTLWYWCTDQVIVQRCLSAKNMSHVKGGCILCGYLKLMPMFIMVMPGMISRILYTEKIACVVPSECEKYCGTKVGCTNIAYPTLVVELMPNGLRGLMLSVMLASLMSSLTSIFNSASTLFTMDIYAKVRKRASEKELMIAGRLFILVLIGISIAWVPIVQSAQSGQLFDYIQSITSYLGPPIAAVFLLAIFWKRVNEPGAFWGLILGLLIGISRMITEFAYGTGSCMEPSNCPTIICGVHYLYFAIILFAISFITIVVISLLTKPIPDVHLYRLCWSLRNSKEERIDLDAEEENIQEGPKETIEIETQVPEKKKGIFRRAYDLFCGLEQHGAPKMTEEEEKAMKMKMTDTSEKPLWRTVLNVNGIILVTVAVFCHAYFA
In words: Inhibition of human SGLT1 expressed in CHOK1 cells assessed as inhibition of [14C]-AMG uptake after 3 hrs by microbeta scintillation counting analysis.
Turning to `O=c1n(Cc2cc([C@@H]3O[C@H](CO)[C@@H](O)[C@H](O)[C@H]3O)ccc2Cl)nc2ccc(C(F)(F)F)cn12` [US8575114, I-5], the IC50 is greater than 90 µM.

Consider `O=c1n(Cc2cc([C@@H]3O[C@H](CO)[C@@H](O)[C@H](O)[C@H]3O)ccc2Cl)nc2ccc(CO)cn12` [US8575114, I-6], for which the IC50 was greater than 90 µM.

For the compound `Cc1cc2nn(Cc3cc([C@@H]4O[C@H](CO)[C@@H](O)[C@H](O)[C@H]4O)ccc3Cl)c(=O)n2cc1Cl` [US8575114, I-12], the IC50 was greater than 90 µM.
